Results published in paper PMC13266999, “Designing Antibiotics with Inherent Resistance to Efflux as a Strategy to Revive Discovery against Multidrug-Resistant Pathogens” (Journal of Medicinal Chemistry, 2026).
Values after ≈ are worked out from the molar mass of the structure shown. Read-outs that look alike come from different tables or passages of the source.

Key:
Acinetobacter baumannii = experiment: MIC (microbroth dilution); format: cell-based; settings: Acinetobacter baumannii
Summary of the method: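 Broth microdilution MICs were run in tryptic soy broth, or for Streptococcus spp. in cation-adjusted Mueller Hinton broth with 2.5% lysed horse blood, using overnight stationary-phase cultures back-diluted. MIC was the lowest concentration with no visible growth, with OD600 also read. Some MICs included PMBN at 30 μg/mL final.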

[1] = molecular target: T1, GyrA S84L mutant DNA gyrase (Staphylococcus aureus, UniProt P0A0K8+P20831, S84L); experiment: DNA gyrase supercoiling inhibition assay; format: biochemical, S. aureus; settings: S84L mutant enzyme; read-out: IC50 (converted)
T1 construct: purchased Inspiralis Ltd. (Norwich, UK)
Method: (§1) Gyrase inhibition was determined through biochemical assay kits from Inspiralis Ltd. (Norwich, UK), according to manufacturer’s instructions, and as described previously. Briefly, 1U of enzyme was incubated with 0.5 μg of relaxed […] DNA in the presence of compound in 1% DMSO for 30 min at 37 °C. A control reaction contained no compound but still contained 1% DMSO. The reactions were stopped through Stop Buffer addition and the DNA separated through addition of chloroform/iso-amyl alcohol (24;1). Samples were run on a 1% agarose gel at 75 V for 2 h, which was then stained with 1 μg/mL ethidium bromide and visualized using a NuGenius gel imager (Syngene). The intensity of the supercoiled DNA band was quantified using Syngene software, and the inhibition of the supercoiling of the DNA by the compounds was calculated.

WT DNA gyrase = molecular target: T2, WT DNA gyrase (Staphylococcus aureus, UniProt P0A0K8+P20831); experiment: DNA gyrase supercoiling inhibition assay; format: biochemical, S. aureus; settings: WT enzyme; read-out: IC50 (converted)
T2 construct: purchased Inspiralis Ltd. (Norwich, UK)
Method: as §1

S. aureus [2] = experiment: Serial passaging, MIC of adapted strains; format: cell-based; settings: Staphylococcus aureus
Method: MICs were performed on the first and 10th passage.

A. baumannii = experiment: Mutation frequency and agar MIC; format: cell-based; settings: A118
Method: (§2) Mutation frequencies were performed on solid media at supra-inhibitory concentrations. First, the agar MIC was performed to account for any issues in solubility of compounds in solid media. Agar plates were prepared with 2-fold dilutions of compound.
(§3) For the mutation frequency assay, bacteria from an overnight culture were grown to mid exponential phase in liquid broth, then 100 μL was spread onto an agar plate containing compound at concentrations above the agar MIC. A Miles-Misra was also conducted on an antibiotic-free agar plate to determine the CFU/mL of the starting population. […] The mutation frequency was calculated by dividing the number of colonies on supra inhibitory con-centration plates by the starting population.

E. coli = experiment: Mutation frequency and agar MIC; format: cell-based
Method: as §2, §3

S. aureus [3] = experiment: Mutation frequency and agar MIC; format: cell-based
Method: as §2, §3

Pharmacokinetics = settings: male, ICR (CD-1), mouse
Method: Pharmacokinetic studies were performed in male ICR (CD-1) mice obtained from Charles River, UK. […] Blood samples were collected from the caudal vein into anticoagulant-treated capillaries at predetermined time points up to 8 h, with terminal cardiac puncture at 8 h. Plasma samples were stored at −80 °C until analysis. […] A compound-specific LC-MS/MS method was developed for each test article using matrix-matched calibrators following protein precipitation of samples.

Which results are given for `C[C@H]1COc2c(N3CCN(C)CC3)c(F)cc3c(=O)c(C(=O)O)cn1c23` [Levofloxacin, (S)-9-Fluoro-3-methyl-10-(4-methylpiperazin-1-yl)-7-oxo-2,3-dihydro-7H-[1,4]oxazino[2,3,4-ij]quinoline-6-carboxylic acid, reference compound]?
MIC (Acinetobacter baumannii; A118): ≤ 0.06 µg/mL; MIC (Acinetobacter baumannii; ATCC17978, ATCC 17978, read-out: MIC): 0.125 µg/mL (≈ 0.346 µM); MIC (Acinetobacter baumannii; BAA1709, BAA-1709, read-out: MIC): 0.125 µg/mL (≈ 0.346 µM); MIC (Acinetobacter baumannii; BAA1710, BAA-1710 (AYE), read-out: MIC): 4 µg/mL (≈ 11.1 µM); MIC (Acinetobacter baumannii; BAA2093, BAA-2093, read-out: MIC): 0.06 µg/mL (≈ 0.166 µM); MIC (Acinetobacter baumannii; NCTC10303, NCTC 10303, read-out: MIC): 0.125 µg/mL (≈ 0.346 µM); MIC (Acinetobacter baumannii; NCTC12156, NCTC 12156, read-out: MIC): 1 µg/mL (≈ 2.77 µM); MIC (Acinetobacter baumannii; NCTC13302, NCTC 13302, oxa24, read-out: MIC): 4 µg/mL (≈ 11.1 µM); MIC (Acinetobacter baumannii; NCTC13424, NCTC 13424, oxa23, read-out: MIC): 64 µg/mL (≈ 177 µM); MIC (Acinetobacter baumannii; UKA1, oxa23, read-out: MIC): 2 µg/mL (≈ 5.53 µM); MIC (Acinetobacter baumannii; UKA2, Low resistance, read-out: MIC): 4 µg/mL (≈ 11.1 µM); MIC (Acinetobacter baumannii; UKA9, read-out: MIC): 0.125 µg/mL (≈ 0.346 µM); MIC (Acinetobacter baumannii; UKA12, oxa23, read-out: MIC): 8 µg/mL (≈ 22.1 µM); MIC (Acinetobacter baumannii; UKA13, oxa23, read-out: MIC): 16 µg/mL (≈ 44.3 µM); MIC (Acinetobacter baumannii; UKA15, oxa23, read-out: MIC): 4 µg/mL (≈ 11.1 µM); MIC (Acinetobacter baumannii; UKA19, read-out: MIC): 1 µg/mL (≈ 2.77 µM); MIC (Acinetobacter baumannii; W1, read-out: MIC): 8 µg/mL (≈ 22.1 µM); MIC50 (Acinetobacter baumannii; panel of 25 A. baumannii strains): 4 µg/mL (≈ 11.1 µM); IC50 [1]: 545 µM; IC50 (WT DNA gyrase): 24.1 µM; MIC (S. aureus [2]; 1199B WT): 1 µg/mL; MIC (S. aureus [2]; 1199B adapted to 4 x MIC of Compound 7): 4 µg/mL; MIC (S. aureus [2]; 1199B adapted to 4 x MIC of Compound 46): 2 µg/mL; MIC (S. aureus [2]; 1199B adapted to 4 x MIC of Compound 50): 4 µg/mL; MIC (S. aureus [2]; 1199B adapted to 4 x MIC of Compound 51): 2 µg/mL; MIC (S. aureus [2]; 1199 WT): 0.125 µg/mL; MIC (S. aureus [2]; 1199 adapted to 4 x MIC of Compound 7): 1 µg/mL; MIC (S. aureus [2]; 1199 adapted to 4 x MIC of Compound 46): 0.25 µg/mL; MIC (S. aureus [2]; 1199 adapted to 4 x MIC of Compound 50): 1 µg/mL; MIC (S. aureus [2]; 1199 adapted to 4 x MIC of Compound 51): 0.25 µg/mL; MIC (S. aureus [2]; NCTC13616, NCTC 13616 WT): 8 µg/mL; MIC (S. aureus [2]; NCTC13616, NCTC 13616 adapted to 4 x MIC of Compound 7): > 32 µg/mL; MIC (S. aureus [2]; NCTC13616, NCTC 13616 adapted to 4 x MIC of Compound 46): 16 µg/mL; MIC (S. aureus [2]; NCTC13616, NCTC 13616 adapted to 4 x MIC of Compound 50): 16 µg/mL; MIC (S. aureus [2]; NCTC13616, NCTC 13616 adapted to 4 x MIC of Compound 51): 32 µg/mL; Agar MIC (A. baumannii): 0.06 µg/mL; Agar MIC (E. coli; NCTC 12241): 0.03 µg/mL; Agar MIC (E. coli; NCTC 12923): 0.0078 µg/mL; Agar MIC (S. aureus [3]; ATCC 9144): 0.12 µg/mL; Agar MIC (S. aureus [3]; NCTC 13616): 4 µg/mL; half-life (Pharmacokinetics; in vivo, po, 20 mg/kg): 5.7 h; AUC(0-inf) (Pharmacokinetics; plasma, iv, 5 mg/kg): 9170 ng·h/mL
